Test results as given in article PMC9939733 (The Journal of Biological Chemistry, 2023).
Where a chain is given by its changes, count along the chain named.

Columns and labels:
Assay type in all cases: biochemical
R140Q IDH2 [1] = biological target: T1, R140Q IDH2 (Homo sapiens, UniProt P48735, R140Q); test: Steady-state kinetics, absorbance assay; conditions: 0.03 μM enzyme, 50 μM NADPH, 20 mM MgCl2, pH 8.0
T1 construct: made in house; host or cells: Sf21 insect cells (cell pellets prepared at Evotec)
T1 sequence (P48735 40-452 R140Q): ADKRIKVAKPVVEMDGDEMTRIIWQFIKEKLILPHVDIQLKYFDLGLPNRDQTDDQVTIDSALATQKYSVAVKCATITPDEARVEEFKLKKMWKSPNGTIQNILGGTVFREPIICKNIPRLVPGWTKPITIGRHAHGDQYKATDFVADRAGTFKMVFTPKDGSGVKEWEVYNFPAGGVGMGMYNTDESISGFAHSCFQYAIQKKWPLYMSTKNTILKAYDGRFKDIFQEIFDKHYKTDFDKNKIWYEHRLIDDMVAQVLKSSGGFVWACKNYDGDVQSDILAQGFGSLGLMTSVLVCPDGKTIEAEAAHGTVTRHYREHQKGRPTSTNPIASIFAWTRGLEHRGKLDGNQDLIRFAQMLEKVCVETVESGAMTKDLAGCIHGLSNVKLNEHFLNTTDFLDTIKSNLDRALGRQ
Experimental: (§1) Compounds were dispensed using a CyBio SDW-CW CyBi-Well Simultaneous Pipettor and assay started using a ThermoFisher Multidrop Combi reagent dispenser.
(§2) Reactions were performed as technical duplicates, and all assays were carried out in two independent duplicates.

WT IDH2 [2] = biological target: T2, WT IDH2 (Homo sapiens, UniProt P48735); test: Absorbance assay, WT activity in the presence of equimolar DL-isocitrate (inhibition); conditions: […] isocitrate and […] test compound, 75 μM NADP+, 2.0 nM WT IDH2
T2 construct: made in house; host or cells: Sf21 insect cells (cell pellets prepared at Evotec)
T2 sequence (P48735 40-452): T1 sequence (P48735 40-452 R140Q) with Q101R
Summary of the method: (§3)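 Reactions were run as technical quadruplicates. Compounds were dispensed with a simultaneous pipettor, and each assay was started by adding reagent from a bulk dispenser.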

WT IDH1 [3] = biological target: T3, WT IDH1 (Homo sapiens, UniProt O75874); test: as above; conditions: […] isocitrate and […] test compound, 75 μM NADP+, 2.0 nM WT IDH1
T3 construct: made in house; host or cells: Escherichia coli BL21(DE3) pLyS
Summary of the method: as §3

WT IDH2 [4] = biological target: T2, WT IDH2; test: Absorbance assay, substrate activity in the absence of DL-isocitrate; conditions: no DL-isocitrate; […] test compound, 75 μM NADP+, 2.0 nM WT IDH2; compared to DL-isocitrate
Summary of the method: as §3

WT IDH1 [5] = biological target: T3, WT IDH1; test: as above; conditions: no DL-isocitrate; […] test compound, 75 μM NADP+, 2.0 nM WT IDH1; compared to DL-isocitrate
Summary of the method: as §3

R140Q IDH2 [6] = biological target: T1, R140Q IDH2; test: Absorbance assay, variant activity in the presence of equimolar 2OG (inhibition screen); conditions: 6.0 mM 2OG and 6.0 mM test compound, 0.03 μM R140Q IDH2, 50 μM NADPH
Summary of the method: as §3

R172K IDH2 [7] = biological target: T4, R172K IDH2 (Homo sapiens, UniProt P48735, R172K); test: as above; conditions: 1.0 mM 2OG and 1.0 mM test compound, 0.03 μM R172K IDH2, 50 μM NADPH
T4 construct: made in house; host or cells: Sf21 insect cells (cell pellets prepared at Evotec)
T4 sequence (P48735 40-452 R172K): T1 sequence (P48735 40-452 R140Q) with Q101R, R133K
Summary of the method: as §3

R132H IDH1 [8] = biological target: T5, R132H IDH1 (Homo sapiens, UniProt O75874, R132H); test: as above; set-up: made in house; host or cells: Escherichia coli BL21(DE3) pLyS; conditions: […] 2OG and […] test compound, 0.03 μM R132H IDH1, 50 μM NADPH
Summary of the method: as §3

R172K IDH2 [9] = biological target: T4, R172K IDH2; test: Steady-state kinetics, absorbance assay; conditions: 0.03 μM enzyme, 50 μM NADPH, 20 mM MgCl2, pH 8.0
Experimental: as §1, §2

R132H IDH1 [10] = biological target: T5, R132H IDH1; test: Absorbance assay (NADPH consumption), substrate turnover in the absence of 2OG; set-up: made in house; host or cells: Escherichia coli BL21(DE3) pLyS; conditions: no 2OG; […] test compound, 0.03 μM R132H IDH1, 50 μM NADPH; 2OG = 100
Summary of the method: as §3

R140Q IDH2 [11] = biological target: T1, R140Q IDH2; test: as above; conditions: no 2OG; 6.0 mM test compound, 0.03 μM R140Q IDH2, 50 μM NADPH; 2OG = 100
Summary of the method: as §3

R172K IDH2 [12] = biological target: T4, R172K IDH2; test: as above; conditions: no 2OG; 1.0 mM test compound, 0.03 μM R172K IDH2, 50 μM NADPH; 2OG = 100
Summary of the method: as §3

T5 sequence (O75874 whole entry R132H): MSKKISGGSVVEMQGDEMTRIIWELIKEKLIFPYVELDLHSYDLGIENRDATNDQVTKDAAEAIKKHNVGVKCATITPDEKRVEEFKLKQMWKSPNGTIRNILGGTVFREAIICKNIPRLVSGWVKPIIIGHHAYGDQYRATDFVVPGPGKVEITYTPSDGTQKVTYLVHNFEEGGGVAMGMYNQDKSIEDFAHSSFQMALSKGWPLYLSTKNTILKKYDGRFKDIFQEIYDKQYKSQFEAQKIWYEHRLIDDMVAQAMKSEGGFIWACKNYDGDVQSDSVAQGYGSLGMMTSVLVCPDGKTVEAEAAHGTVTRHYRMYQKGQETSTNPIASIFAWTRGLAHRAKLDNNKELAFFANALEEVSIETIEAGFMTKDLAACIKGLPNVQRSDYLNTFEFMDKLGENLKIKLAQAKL
T3 sequence (O75874 whole entry): as the sequence (O75874 whole entry R132H) above, with H132R counted along it

CCC(CC(=O)O)C(=O)C(=O)O (racemic) [compound 2]
Kmapp (R140Q IDH2 [1]): 3.8 to 7.5 mM | activity [%] (%-substrate conversion after 20 min incubation) (WT IDH2 [2]): 96±3% | activity [%] (%-substrate conversion after 20 min incubation) (WT IDH1 [3]): 98±10% | activity [%] (%-substrate conversion after 20 min incubation) (WT IDH2 [4]): < 10% | activity [%] (%-substrate conversion after 20 min incubation) (WT IDH1 [5]): < 10% | activity [%] (%-substrate conversion after 20 min incubation) (R140Q IDH2 [6]): 865 ± 78% | activity [%] (%-substrate conversion after 20 min incubation) (R172K IDH2 [7]): 131 ± 16% | activity [%] (%-substrate conversion after 20 min incubation) (R132H IDH1 [8]): 317 ± 12%

CCCC(CC(=O)O)C(=O)C(=O)O (racemic) [compound 3]
kcatapp (R172K IDH2 [9]): ~2.7 s⁻¹ | activity [%] (%-substrate conversion after 20 min incubation) (WT IDH2 [2]): 96±5% | activity [%] (%-substrate conversion after 20 min incubation) (WT IDH1 [3]): 105±5% | activity [%] (%-substrate conversion after 20 min incubation) (WT IDH2 [4]): < 10% | activity [%] (%-substrate conversion after 20 min incubation) (WT IDH1 [5]): < 10% | activity [%] (%-substrate conversion after 20 min incubation) (R140Q IDH2 [6]): 632 ± 68% | activity [%] (%-substrate conversion after 20 min incubation) (R172K IDH2 [7]): 105 ± 6% | activity [%] (%-substrate conversion after 20 min incubation) (R132H IDH1 [8]): 294 ± 31%

O=C(O)CC(Cc1ccccc1)C(=O)C(=O)O (centres unmarked) [compound 7, 3-benzyl-2OG]
Kmapp (R140Q IDH2 [1]): 3.8 to 7.5 mM | activity [%] (%-substrate conversion after 20 min incubation) (WT IDH2 [2]): 99±1% | activity [%] (%-substrate conversion after 20 min incubation) (WT IDH1 [3]): 94±1% | activity [%] (%-substrate conversion after 20 min incubation) (WT IDH2 [4]): < 10% | activity [%] (%-substrate conversion after 20 min incubation) (WT IDH1 [5]): < 10% | activity [%] (%-substrate conversion after 20 min incubation) (R140Q IDH2 [6]): 91 ± 8% | activity [%] (%-substrate conversion after 20 min incubation) (R172K IDH2 [7]): 114 ± 4% | activity [%] (%-substrate conversion after 20 min incubation) (R132H IDH1 [8]): 229 ± 21%

O=C(O)CCC(=O)O [succinic acid]
activity [%] (%-substrate conversion after 20 min incubation) (WT IDH2 [2]): 97 ± 3% | activity [%] (%-substrate conversion after 20 min incubation) (WT IDH1 [3]): 97 ± 2% | activity [%] (%-substrate conversion after 20 min incubation) (WT IDH2 [4]): < 10% | activity [%] (%-substrate conversion after 20 min incubation) (WT IDH1 [5]): < 10% | activity [%] (%-substrate conversion after 20 min incubation) (R132H IDH1 [10]): < 10% | activity [%] (%-substrate conversion after 20 min incubation) (R140Q IDH2 [11]): < 10% | activity [%] (%-substrate conversion after 20 min incubation) (R172K IDH2 [12]): < 10% | activity [%] (%-substrate conversion after 20 min incubation) (R140Q IDH2 [6]): 124 ± 11% | activity [%] (%-substrate conversion after 20 min incubation) (R172K IDH2 [7]): 89 ± 2% | activity [%] (%-substrate conversion after 20 min incubation) (R132H IDH1 [8]): 100 ± 4%

succinyl CoA
activity [%] (%-substrate conversion after 20 min incubation) (WT IDH2 [2]): 99 ± 1% | activity [%] (%-substrate conversion after 20 min incubation) (WT IDH1 [3]): 100 ± 1% | activity [%] (%-substrate conversion after 20 min incubation) (WT IDH2 [4]): < 10% | activity [%] (%-substrate conversion after 20 min incubation) (WT IDH1 [5]): < 10% | activity [%] (%-substrate conversion after 20 min incubation) (R132H IDH1 [10]): < 10% | activity [%] (%-substrate conversion after 20 min incubation) (R140Q IDH2 [11]): < 10% | activity [%] (%-substrate conversion after 20 min incubation) (R172K IDH2 [12]): < 10% | activity [%] (%-substrate conversion after 20 min incubation) (R140Q IDH2 [6]): 117 ± 2% | activity [%] (%-substrate conversion after 20 min incubation) (R172K IDH2 [7]): 91 ± 6% | activity [%] (%-substrate conversion after 20 min incubation) (R132H IDH1 [8]): 73 ± 1%
